According to patent publication US20240315990A1, “Adelmidrol For Use In Diseases Characterized By Insufficient Agonism Of PPAR-GAMMA Receptor” (Epitech Group S.P.A., priority 2016, published 2024):
Entries after “also recorded” stand apart in the source; their conditions may differ.

What was measured:
[1] = system: MIA-induced articular cartilage erosion; assay: monosodium iodoacetate (MIA)-induced articular lesion, cartilage erosion by stereomicroscope; assay type: in vivo; details: Adelmidrol 150 μg/25 μL i.a.
Description: FIG. 1A. Images obtained by a stereomicroscope on the state of erosion of the interposed cartilage in the right knee of each experimental group: control, MIA, Adelmidrol 150 μg/25 μL i.a. The analysis was performed 21 days after the induction of the disease.
FIG. 1B. Effect of the treatment with Adelmidrol 150 μg/25 μL i.a. on the erosive lesion of the interposed cartilage upon injection of MIA, compared to MIA and control groups treated with the solvent;
A microscopic analysis of the lesion related to the articular cartilage was performed by comparing the erosive lesion of the articular cartilage between the following groups: animals not treated with MIA, animals treated with MIA+solvent, and animals treated with MIA+solvent added with Adelmidrol. […] In the image corresponding to the animal damaged through MIA, an extensive cartilage erosion is apparent, which also allows to distinguish the subchondral bone, unlike the animal control whose joint is in excellent condition. […] Each image was given a score from 0 to 4 (0=normal; 4=maximum degree of injury severity) expressing the articular cartilage lesion in terms of increasing severity (Janusz M J et al. Ostearthritis and Cartilage 2001; 9:751-760), as described by Guingamp et al. (Guingamp C. et al. Arthritis & Rheumatism 1997; Vol 40 No 9:1670-1679).

[2] = bleomycin-induced lung lesion, weight change in the animals; assay type: in vivo, CD1 male mice; details: mice, bleomycin (BLM) + Adelmidrol vs BLM + inert vehicle
Description: CD1 male mice ((CD1(ICR) mice (25-35 g; Harlan Nossan, Italy) were accommodated in a controlled environment and fed with standard food and water.
Using a catheter (tracheotomy tube), the mice received a single intratracheal instillation of physiological solution (0.9%) or saline containing bleomycin sulfate (0.1 U/mouse) in a final volume of 100 μL, and the liquid was immediately followed by 300 μL of air in order to also ensure the distribution thereof in the distal airways.
All procedures related to the treatment of animals were performed in accordance with the guidelines approved by the Institutional Committee (IACUC) following the guidelines of the Association for Assessment and Accreditation of Laboratory Animal Care (AAALAC). While being monitored, the animals were inspected for any adverse effects produced by the lung lesion. An assessment of the water and food consumption and consequently of the body weight (analyzed daily by weighing the animals) was carried out (Mullane K M et al, 1985, supra).
The animals belonging to the group treated with bleomycin (BLM)+inert vehicle and those belonging to that treated with BLM and Adelmidrol in an inert vehicle were weighed, and the weight change was calculated on the 3rd and 8th day after the start of the treatment with BLM. The results are shown in the chart in FIG. 5.

[3] = system: bleomycin-induced lung edema; assay: bleomycin-induced lung lesion, lung edema (wet vs dry lung weight); assay type: in vivo, CD1 male mice
Description: CD1 male mice ((CD1(ICR) mice (25-35 g; Harlan Nossan, Italy) were accommodated in a controlled environment and fed with standard food and water. Using a catheter (tracheotomy tube), the mice received a single intratracheal instillation of physiological solution (0.9%) or saline containing bleomycin sulfate (0.1 U/mouse) in a final volume of 100 μL, and the liquid was immediately followed by 300 μL of air in order to also ensure the distribution thereof in the distal airways. The weight of the wet lungs was calculated after 28 days upon injecting bleomycin by means of careful excision of the lung from the adjacent tissues. The lungs were exposed for 48 hours at 180° C. and the dry weight was then assessed. The lung water content was calculated as wet weight-to-dry weight ratio. In order to assess the degree of the existing lung edema, at the end of the experiment, even in untreated animals, the comparison of the wet lung weight to the lung weight after water removal was carried out. The results are shown in the chart in FIG. 6.

[4] = system: carrageenan-induced edema in PPAR-α-WT and KO mice; assay: carrageenan-induced edema in PPAR-alpha knock-out mice; assay type: in vivo; details: Adelmidrol 10 mg/kg i.p.; for edema as a percentage with respect to the edema produced by carrageenan alone: PPAR-α-WT and KO mice
Description: In order to verify a possible involvement of PPAR-alpha receptor, the edema induced by carrageenan in the manners described above was carried out on PPAR-alpha knock-out mice (PPAR-α-WT and KO).
PPAR-α-WT and KO mice (10 animals per group) were divided into the following experimental groups: • CAR+physiological solution; • CAR+Adelmidrol (10 mg/kg); Adelmidrol was administered i.p. when injecting CAR.

PPAR-gamma receptor = biological target: T1, PPAR-gamma receptor (Rattus norvegicus, UniProt O88275); assay: carrageenan-induced rat paw edema with PPAR-gamma antagonist GW9662, residence time of the paw on the hot plate; assay type: in vivo
T1 construct: from tissue; host or cells: live rat (in vivo, paw edema model)
T1 sequence (O88275 1-505): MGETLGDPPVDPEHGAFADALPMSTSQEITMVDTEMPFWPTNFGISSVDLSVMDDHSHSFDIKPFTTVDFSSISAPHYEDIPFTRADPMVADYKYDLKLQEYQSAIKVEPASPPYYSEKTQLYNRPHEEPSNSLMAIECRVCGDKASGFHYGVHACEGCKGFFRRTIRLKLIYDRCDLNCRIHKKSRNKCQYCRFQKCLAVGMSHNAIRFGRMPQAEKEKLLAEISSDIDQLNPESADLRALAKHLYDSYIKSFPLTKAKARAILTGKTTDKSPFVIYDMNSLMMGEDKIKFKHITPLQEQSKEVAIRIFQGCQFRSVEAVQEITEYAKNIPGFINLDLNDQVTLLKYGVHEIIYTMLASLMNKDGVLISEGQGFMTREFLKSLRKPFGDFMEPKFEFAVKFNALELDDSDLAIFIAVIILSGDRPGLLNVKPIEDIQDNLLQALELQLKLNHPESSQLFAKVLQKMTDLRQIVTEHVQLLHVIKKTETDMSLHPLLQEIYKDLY
Description: The experimental model of carrageenan-induced rat paw edema is as shown above. In this experiment, the effect was assessed by measuring the residence time of the animal's paw on the hot plate, thus obtaining percentage data with respect to the control treated with carrageenan alone.
The rats (10 animals per group) were divided into the following experimental groups: • CAR+physiological solution; • CAR+GW9662 (1 mg/kg)+Adelmidrol (10 mg/kg); GW9662 was administered i.p. 30 min before injecting CAR and Adelmidrol (i.p.) when injecting CAR; • CAR+Adelmidrol (10 mg/kg); Adelmidrol was administered i.p. when injecting CAR.

residence time of the paw on the hot plate, percentage with respect to the control treated with carrageenan alone (PPAR-gamma receptor; Adelmidrol 10 mg/kg ip alone, 0 min.): 107.4 percentage
residence time of the paw on the hot plate, percentage with respect to the control treated with carrageenan alone (PPAR-gamma receptor; Adelmidrol 10 mg/kg ip alone, 30 min): 98.5 percentage
residence time of the paw on the hot plate, percentage with respect to the control treated with carrageenan alone (PPAR-gamma receptor; Adelmidrol 10 mg/kg ip alone, 1 hr): 123.2 percentage
residence time of the paw on the hot plate, percentage with respect to the control treated with carrageenan alone (PPAR-gamma receptor; Adelmidrol 10 mg/kg ip alone, 2 hr): 134.2 percentage
residence time of the paw on the hot plate, percentage with respect to the control treated with carrageenan alone (PPAR-gamma receptor; Adelmidrol 10 mg/kg ip alone, 3 hr): 146.8 percentage
residence time of the paw on the hot plate, percentage with respect to the control treated with carrageenan alone (PPAR-gamma receptor; Adelmidrol 10 mg/kg ip alone, 4 hr): 197.7 percentage
residence time of the paw on the hot plate, percentage with respect to the control treated with carrageenan alone (PPAR-gamma receptor; Adelmidrol 10 mg/kg ip alone, 5 hr): 175.0 percentage
residence time of the paw on the hot plate, percentage with respect to the control treated with carrageenan alone (PPAR-gamma receptor; GW9662 1 mg/kg i.p. 30 min before CAR + Adelmidrol 10 mg/kg i.p., 0 min.): 105.2 percentage
residence time of the paw on the hot plate, percentage with respect to the control treated with carrageenan alone (PPAR-gamma receptor; GW9662 1 mg/kg i.p. 30 min before CAR + Adelmidrol 10 mg/kg i.p., 30 min): 96.2 percentage
residence time of the paw on the hot plate, percentage with respect to the control treated with carrageenan alone (PPAR-gamma receptor; GW9662 1 mg/kg i.p. 30 min before CAR + Adelmidrol 10 mg/kg i.p., 1 hr): 102.4 percentage
residence time of the paw on the hot plate, percentage with respect to the control treated with carrageenan alone (PPAR-gamma receptor; GW9662 1 mg/kg i.p. 30 min before CAR + Adelmidrol 10 mg/kg i.p., 2 hr): 104.1 percentage
residence time of the paw on the hot plate, percentage with respect to the control treated with carrageenan alone (PPAR-gamma receptor; GW9662 1 mg/kg i.p. 30 min before CAR + Adelmidrol 10 mg/kg i.p., 3 hr): 111.3 percentage
residence time of the paw on the hot plate, percentage with respect to the control treated with carrageenan alone (PPAR-gamma receptor; GW9662 1 mg/kg i.p. 30 min before CAR + Adelmidrol 10 mg/kg i.p., 4 hr): 114.1 percentage
residence time of the paw on the hot plate, percentage with respect to the control treated with carrageenan alone (PPAR-gamma receptor; GW9662 1 mg/kg i.p. 30 min before CAR + Adelmidrol 10 mg/kg i.p., 5 hr): 112.5 percentage
Structure (SMILES): O=C(CCCCCCCC(=O)NCCO)NCCO [Adelmidrol, azelaic acid diethanolamide]
cartilage erosion of the tibial plateau, stereomicroscope image (FIG. 1A) ([1]; 21 days after induction with MIA): clear protection against cartilage erosion
cartilage erosion, quantitative analysis of score 0 to 4 (FIG. 1B) ([1]; compared to MIA + solvent): noticeably slow down the cartilage erosion in a statistically significant manner
body weight change on the 3rd and 8th day after start of BLM (FIG. 5) [2]: significant body weight gain
difference in lung weight between fresh organ and dried organ (FIG. 6) ([3]; mice not treated with BLM): does not change the difference in lung weight between fresh organ and dried organ
difference in lung weight between fresh organ and dried organ (FIG. 6) ([3]; mice treated with BLM and Adelmidrol vs BLM and inert vehicle): considerably lower
protective action on carrageenan-induced edema in the absence of the PPAR-alpha receptor ([4]; PPAR-alpha knock-out mice): did not alter the protective action of Adelmidrol; also recorded: shows activity on the carrageenan-induced edema in mice genetically lacking the PPAR-alpha receptor
edema as a percentage with respect to the edema produced by carrageenan alone ([4]; 0 min.): 102.4 percentage
edema as a percentage with respect to the edema produced by carrageenan alone ([4]; 30 min): 81.9 percentage
edema as a percentage with respect to the edema produced by carrageenan alone ([4]; 1 hr): 69.2 percentage
edema as a percentage with respect to the edema produced by carrageenan alone ([4]; 2 hr): 63.9 percentage
edema as a percentage with respect to the edema produced by carrageenan alone ([4]; 3 hr): 55.6 percentage
edema as a percentage with respect to the edema produced by carrageenan alone ([4]; 4 hr): 51.4 percentage
edema as a percentage with respect to the edema produced by carrageenan alone ([4]; 5 hr): 50.3 percentage
